Laboratory results as given in patent US10174037B2, “Dihydropyrazolopyrimidinone compounds as PDE2 inhibitors” (Merck Sharp & Dohme Corp., priority 2015, dated 2019).

Target: human PDE2A1 (Homo sapiens (Human), UniProt O00408)
Assay: PDE selectivity IMAP FP assay, human PDE2A1
Assay type: biochemical
Conditions: Human PDE2; Lab B; read-out: Human PDE2 Ki (nM) Lab B
Experimental: Selectivity for PDE2, as compared to other PDE families, was assessed using the IMAP® technology. Human PDE10A2 enzyme was prepared from cytosolic fractions of transiently transfected HEK cells.
A Labcyte POD 810 (Labcyte, Sunnyvale, Calif.) was used to dispense 200 nL from each well of the titration plate to make eleven copies of the assay plate for each titration, one copy for each PDE enzyme. A solution of each enzyme (dilution from aliquots, sufficient to produce 20% substrate conversion) and a separate solution of FAM-labeled cAMP or FAM-labeled cGMP from Molecular Devices (Sunnyvale, Calif., product # R7506 or cGMP#R7508), at a final concentration of 50 nM were made in the assay buffer (10 mM Tris HCl, pH 7.2, 10 mM MgCl2, 0.05% NaN3 0.01% Tween-20, and 1 mM DTT). Note that the substrate for PDE2 is 50 nM FAM cAMP containing 1000 nM of cGMP. The enzyme and the substrate were then added to the assay plates in two consecutive additions of 10 μL and then shaken to mix. The reaction was allowed to proceed at room temperature for 60 minutes. A binding solution was then made from the kit components, comprised of 80% Solution A, 20% Solution B and binding reagent at a volume of 1/600 the total binding solution. The enzymatic reaction was stopped by addition of 60 μL of the binding solution to each well of the assay plate. […] The plates were incubated at room temperature for one hour, then the parallel and perpendicular fluorescence was measured using a Tecan Genios Pro plate reader (Tecan, Switzerland). […] The intrinsic PDE2 inhibitory activity of a compound which may be used in accordance with the present invention may be determined by these assays. […]
The PDE2 Ki is a measure of the ability of the test compound to inhibit the action of the PDE2 enzyme.

human PDE2A1, sequence (O00408 other isoform, or with tags, fused parts or gaps): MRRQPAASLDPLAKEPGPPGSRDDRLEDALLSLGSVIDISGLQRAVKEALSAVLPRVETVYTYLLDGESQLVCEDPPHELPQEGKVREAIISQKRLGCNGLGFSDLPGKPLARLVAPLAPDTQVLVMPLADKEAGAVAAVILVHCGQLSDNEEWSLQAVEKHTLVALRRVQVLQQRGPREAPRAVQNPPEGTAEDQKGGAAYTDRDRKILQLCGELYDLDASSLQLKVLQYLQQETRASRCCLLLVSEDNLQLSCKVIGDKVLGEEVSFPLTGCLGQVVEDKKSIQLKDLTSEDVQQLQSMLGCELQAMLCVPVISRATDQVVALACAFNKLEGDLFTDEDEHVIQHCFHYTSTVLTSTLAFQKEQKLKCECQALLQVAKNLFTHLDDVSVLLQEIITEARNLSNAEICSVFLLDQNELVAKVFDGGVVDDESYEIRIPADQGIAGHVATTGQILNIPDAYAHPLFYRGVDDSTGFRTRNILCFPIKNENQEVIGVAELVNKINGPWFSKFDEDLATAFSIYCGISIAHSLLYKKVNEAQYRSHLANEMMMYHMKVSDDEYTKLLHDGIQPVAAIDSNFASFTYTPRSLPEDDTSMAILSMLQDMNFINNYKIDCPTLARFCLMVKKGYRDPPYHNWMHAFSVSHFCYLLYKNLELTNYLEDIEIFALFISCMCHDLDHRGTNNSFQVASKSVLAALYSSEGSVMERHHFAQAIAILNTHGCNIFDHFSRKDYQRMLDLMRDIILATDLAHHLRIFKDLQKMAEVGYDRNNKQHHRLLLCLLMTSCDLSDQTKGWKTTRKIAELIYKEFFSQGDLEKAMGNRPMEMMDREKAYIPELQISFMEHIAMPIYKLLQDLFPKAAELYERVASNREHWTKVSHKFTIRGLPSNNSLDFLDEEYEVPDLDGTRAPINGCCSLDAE

SMILES | Ki [nM]
CC(c1ccc(C(F)(F)F)cc1)n1nc(CC(F)F)c2c(=O)[nH]c(O)nc21 (single isomer, unassigned) [Example 291] | 2.5
CC(c1ccc(C(F)(F)F)cc1)n1nc(CC(F)F)c2c(=O)[nH]c(O)nc21 (single isomer, unassigned) [Example 292] | 137
CC(c1ccc(C(F)(F)F)cc1F)n1nc(C(F)(F)F)c2c(=O)[nH]c(O)nc21 (single isomer, unassigned) [Example 305] | 1.9
CC(c1ccc(C(F)(F)F)cc1F)n1nc(C(F)(F)F)c2c(=O)[nH]c(O)nc21 (single isomer, unassigned) [Example 306] | 330
CC(c1ccc(OC(F)(F)F)cc1F)n1nc(C(F)(F)F)c2c(=O)[nH]c(O)nc21 (single isomer, unassigned) [Example 307, (R)- or (S)-1-{1-[2-Fluoro-4-(trifluoro-methoxy)phenyl]ethyl}-6-hydroxy-3-(trifluoromethyl)-1,5-dihydro-4H-pyrazolo-[3,4-d]pyrimidin-4-one] | 10
CC(c1ccc(OC(F)(F)F)cc1F)n1nc(C(F)(F)F)c2c(=O)[nH]c(O)nc21 (single isomer, unassigned) [Example 308, (S)- or (R)-1-{1-[2-Fluoro-4-(trifluoro-methoxy)phenyl]ethyl}-6-hydroxy-3-(trifluoromethyl)-1,5-dihydro-4H-pyrazolo[3,4-d]pyrimidin-4-one] | 213
CC(c1ccc(OC(F)(F)F)c(F)c1)n1nc(C(F)(F)F)c2c(=O)[nH]c(O)nc21 (single isomer, unassigned) [Example 309, (R)- or (S)-1-{1-[3-Fluoro-4-(trifluoromethoxy)phenyl]ethyl}-6-hydroxy-3-(trifluoromethyl)-1,5-dihydro-4H-pyrazolo[3,4-d]pyrimidin-4-one] | 2.7
CC(c1ccc(OC(F)(F)F)c(F)c1)n1nc(C(F)(F)F)c2c(=O)[nH]c(O)nc21 (single isomer, unassigned) [Example 310, (S)- or (R)-1-{1-[3-Fluoro-4-(trifluoromethoxy)phenyl]ethyl}-6-hydroxy-3-(trifluoromethyl)-1,5-dihydro-4H-pyrazolo[3,4-d]pyrimidin-4-one] | 36
CC(c1ccc(S(F)(F)(F)(F)F)cc1)n1nc(C(F)(F)F)c2c(=O)[nH]c(O)nc21 (single isomer, unassigned) [Example 311, (R)- or (S)-6-Hydroxy-1-{1-[4-(pentafluoro-lambda~6-sulfanyl)phenyl]ethyl}-3-(trifluoromethyl)-1,5-dihydro-4H-pyrazolo[3,4-d]pyrimidin-4-one] | 4.9
CC(c1ccc(S(F)(F)(F)(F)F)cc1)n1nc(C(F)(F)F)c2c(=O)[nH]c(O)nc21 (single isomer, unassigned) [Example 312, (S)- or (R)-6-Hydroxy-1-{1-[4-(pentafluoro-lambda~6-sulfanyl)phenyl]ethyl}-3-(trifluoromethyl)-1,5-dihydro-4H-pyrazolo[3,4-d]pyrimidin-4-one] | 265
CC(c1ccc(C(F)(F)F)c(F)c1)n1nc(C(F)(F)F)c2c(=O)[nH]c(O)nc21 (single isomer, unassigned) [Example 313, (R)- or (S)-1-{1-[3-Fluoro-4-(trifluoromethyl)phenyl]ethyl}-6-hydroxy-3-(trifluoromethyl)-1,5-dihydro-4H-pyrazolo[3,4-d]pyrimidin-4-one] | 2.2
CC(c1ccc(C(F)(F)F)c(F)c1)n1nc(C(F)(F)F)c2c(=O)[nH]c(O)nc21 (single isomer, unassigned) [Example 314, (S)- or (R)-1-{1-[3-Fluoro-4-(trifluoromethyl)phenyl]ethyl}-6-hydroxy-3-(trifluoromethyl)-1,5-dihydro-4H-pyrazolo[3,4-d]pyrimidin-4-one] | 106
CC(c1ccc(OC(F)F)cc1)n1nc(C(F)(F)F)c2c(=O)[nH]c(O)nc21 (single isomer, unassigned) [Example 315, (R)- or (S)-1-{1-[4-(Difluoromethoxy)phenyl]ethyl}-6-hydroxy-3-(trifluoromethyl)-1,5-dihydro-4H-pyrazolo[3,4-d]pyrimidin-4-one] | 629
CC(c1ccc(OC(F)F)cc1)n1nc(C(F)(F)F)c2c(=O)[nH]c(O)nc21 (single isomer, unassigned) [Example 316, (S)- or (R)-1-{1-[4-(Difluoromethoxy)phenyl]ethyl}-6-hydroxy-3-(trifluoromethyl)-1,5-dihydro-4H-pyrazolo[3,4-d]pyrimidin-4-one] | 6.1
CC(c1ccc(C(C)(F)F)cc1)n1nc(C(F)(F)F)c2c(=O)[nH]c(O)nc21 (single isomer, unassigned) [Example 317, (R)- or (S)-1-(1-(4-(1,1-Difluoroethyl)phenyl)ethyl)-6-hydroxy-3-(trifluoromethyl)-1H-pyrazolo[3,4-d]pyrimidin-4(5H)-one] | 326
CC(c1ccc(C(C)(F)F)cc1)n1nc(C(F)(F)F)c2c(=O)[nH]c(O)nc21 (single isomer, unassigned) [Example 318, (S)- or (R)-1-(1-(4-(1,1-Difluoroethyl)phenyl)ethyl)-6-hydroxy-3-(trifluoromethyl)-1H-pyrazolo[3,4-d]pyrimidin-4(5H)-one] | 3
CC(c1ccc(CC(F)F)cc1)n1nc(C(F)(F)F)c2c(=O)[nH]c(O)nc21 (single isomer, unassigned) [Example 319, (R)- or (S)-1-(1-(4-(2,2-Difluoroethyl)phenyl)ethyl)-6-hydroxy-3-(trifluoromethyl)-1H-pyrazolo[3,4-d]pyrimidin-4(5H)-one] | 590
CC(c1ccc(CC(F)F)cc1)n1nc(C(F)(F)F)c2c(=O)[nH]c(O)nc21 (single isomer, unassigned) [Example 320, (S)- or (R)-1-(1-(4-(2,2-Difluoroethyl)phenyl)ethyl)-6-hydroxy-3-(trifluoromethyl)-1H-pyrazolo[3,4-d]pyrimidin-4(5H)-one] | 13

Other lines, results leading:

Ki [nM] | SMILES
145 | CC(c1ccc(OC(F)(F)F)c(Cl)c1)n1nc(C(F)(F)F)c2c(=O)[nH]c(O)nc21 (single isomer, unassigned) [Example 321, (R)- or (S)-1-(1-(3-Chloro-4-(trifluoromethoxy)phenyl)ethyl)-6-hydroxy-3-(trifluoromethyl)-1H-pyrazolo[3,4-d]pyrimidin-4(5H)-one]
9.3 | CC(c1ccc(OC(F)(F)F)c(Cl)c1)n1nc(C(F)(F)F)c2c(=O)[nH]c(O)nc21 (single isomer, unassigned) [Example 322, (S)- or (R)-1-(1-(3-Chloro-4-(trifluoromethoxy)phenyl)ethyl)-6-hydroxy-3-(trifluoromethyl)-1H-pyrazolo[3,4-d]pyrimidin-4(5H)-one]
304 | CC(c1ccc(OC(F)F)c(F)c1)n1nc(C(F)(F)F)c2c(=O)[nH]c(O)nc21 (single isomer, unassigned) [Example 323, (R)- or (S)-1-(1-(4-(Difluoromethoxy)-3-fluorophenyl)ethyl)-6-hydroxy-3-(trifluoromethyl)-1H-pyrazolo[3,4-d]pyrimidin-4(5H)-one]
6.8 | CC(c1ccc(OC(F)F)c(F)c1)n1nc(C(F)(F)F)c2c(=O)[nH]c(O)nc21 (single isomer, unassigned) [Example 324, (S)- or (R)-1-(1-(4-(Difluoromethoxy)-3-fluorophenyl)ethyl)-6-hydroxy-3-(trifluoromethyl)-1H-pyrazolo[3,4-d]pyrimidin-4(5H)-one]
529 | CC(c1ccc(OC(F)F)c(Cl)c1)n1nc(C(F)(F)F)c2c(=O)[nH]c(O)nc21 (single isomer, unassigned) [Example 325, (R)- or (S)-1-(1-(3-Chloro-4-(difluoromethoxy)phenyl)ethyl)-6-hydroxy-3-(trifluoromethyl)-1H-pyrazolo[3,4-d]pyrimidin-4(5H)-one]
16 | CC(c1ccc(OC(F)F)c(Cl)c1)n1nc(C(F)(F)F)c2c(=O)[nH]c(O)nc21 (single isomer, unassigned) [Example 326, (S)- or (R)-1-(1-(3-Chloro-4-(difluoromethoxy)phenyl)ethyl)-6-hydroxy-3-(trifluoromethyl)-1H-pyrazolo[3,4-d]pyrimidin-4(5H)-one]
382 | CC(c1ccc(C(F)(F)F)c(Cl)c1)n1nc(C(F)(F)F)c2c(=O)[nH]c(O)nc21 (single isomer, unassigned) [Example 327, (R)- or (S)-1-(1-(3-Chloro-4-(trifluoromethyl)phenyl)ethyl)-6-hydroxy-3-(trifluoromethyl)-1H-pyrazolo[3,4-d]pyrimidin-4(5H)-one]
3 | CC(c1ccc(C(F)(F)F)c(Cl)c1)n1nc(C(F)(F)F)c2c(=O)[nH]c(O)nc21 (single isomer, unassigned) [Example 328, (S)- or (R)-1-(1-(3-Chloro-4-(trifluoromethyl)phenyl)ethyl)-6-hydroxy-3-(trifluoromethyl)-1H-pyrazolo[3,4-d]pyrimidin-4(5H)-one]
